This is an account of results in patent publication US11234960B2, “Compositions and methods for improving mitochondrial function and treating neurodegenerative diseases and cognitive disorders” (Amazentis SA, priority 2010, dated 2022).

Each structure is given as a SMILES string.

Assay type in all cases: in vivo
Assay [1] relates to HFD-fed C57BL6/J mice. Nature of the assay: Indirect calorimetry (CLAMS) in HFD-fed mice. Particulars: for respiratory exchange ratio (RER): HFD-fed mice (FIGS. 22A, 22B); for energy expenditure (oxygen consumption, VO2): HFD-fed mice, 8 weeks after initiation of treatment (FIGS. 20A, 20B).
Protocol: Mice in different treatment groups were administered (i) urolithin A mixed with food (food admix) to reach a dosing of 55 mg/kg body weight/day (mkd); (ii) ellagic acid mixed with food (food admix) to reach a dosing of 75 mkd; (iii) punicalagin (gavage) to reach a dosing of 90 mkd; or (iv) pomegranate extract (PE) (gavage) to reach a dosing of 140 mkd of total polyphenols. […] For animals treated by gavage, gavage was performed daily (7 days/week) between 8:00 and 10:00 a.m.; compounds were mixed with saline solution (0.9% NaCl) and provided at a final volume of 5 mL/kg of body weight.
Assay [2] has as its system C57BL6/J mice fed standard chow diet. Nature of the assay: Indirect calorimetry (CLAMS) in standard chow diet fed mice. As to conditions: for respiratory exchange ratio (RER): chow diet fed mice (FIGS. 21A, 21B); for energy expenditure (oxygen consumption, VO2): standard chow-fed mice, 2 weeks of treatment (FIGS. 19A, 19B). As to the method:
Mice in different treatment groups were administered (i) urolithin A mixed with food (food admix) to reach a dosing of 55 mg/kg body weight/day (mkd); (ii) ellagic acid mixed with food (food admix) to reach a dosing of 75 mkd; (iii) punicalagin (gavage) to reach a dosing of 90 mkd; or (iv) pomegranate extract (PE) (gavage) to reach a dosing of 140 mkd of total polyphenols. A typical pomegranate extract used in these experiments had the following composition: polyphenols, 140 mkd; punicalagin, 13.1 mkd; and ellagic acid, 13.2 mkd. For animals treated by gavage, gavage was performed daily (7 days/week) between 8:00 and 10:00 a.m.; compounds were mixed with saline solution (0.9% NaCl) and provided at a final volume of 5 mL/kg of body weight. Mice in high-fat control groups were fed with the same diet as the experimental animals. Mice in corresponding different control groups were administered either high-fat diet alone or high-fat diet plus daily gavage with vehicle (saline). Another control group of mice were fed standard chow diet alone.
Male C57BL6/J mice were grouped and treated as described in Example 7. In addition, however, basal energy expenditure of mice was measured by indirect calorimetry oxygen consumption, carbon dioxide production, and respiratory exchange ratio), 8 weeks after the initiation of treatment for the HFD-fed mice and 2 weeks after the initiation of treatment for standard show diet-fed mice, using the Comprehensive Laboratory Animal Monitoring System (CLAMS; Columbus Instruments, Columbus, Ohio, USA). Animals were first acclimatized for 22 h to CLAMS cages (room temperature 22° C.±1° C.) starting between 11 to 12 am. Then measurement was performed for at least 20 h in the same condition. Measurement included an entire dark cycle. Parameters measured during CLAMS were the following: (i) Oxygen consumption (VO2 in mL/kg/h): VO2 is directly correlated to energy expenditure; (ii) Carbon dioxide production (VCO2 in mL/kg/h); and (iii) Respiratory Exchange Ratio (RER): VCO2/VO2: RER is an indicator of the use of energy substrate. In a steady state, RER is equivalent to the Respiratory Quotient (RQ). Pure carbohydrate use gives RER=1, whereas pure fat burning yields an RER=0.7. A mixed diet gives a RER=0.85.
As stated above, in addition to oxygen consumption, indirect calorimetry also monitors carbon dioxide production. The ratio between carbon dioxide production (VCO2) and oxygen consumption (VO2) is called Respiratory Exchange Ratio (RER). RER is an excellent indicator of the use of energy substrates. In a steady state, RER is equivalent to the Respiratory Quotient (RQ). […]

Assay [3] relates to C57BL/6J mice exposed to chronic unpredictable stress. The assay is described as follows: Contextual fear conditioning in chronically stressed mice. As to conditions: 25 mg/kg/d in diet, daily exposure for four days (FIG. 31). As to the method: Three weeks before the initiation of the chronic stress protocol mice were separated into four different groups. One group received standard mouse chow diet (Control), while the remaining three groups received varying doses of extract 1011, an extract derived from pomegranate juice. Low dose corresponded to an extract dose of 21 mg/kg/d of gallic acid equivalents of polyphenols (GAE PPE), the medium dose corresponded to an extract dose of 43 mg/kg/d of GAE PPE, the high dose corresponded to an extract dose of 86 mg/kg/d of GAE PPE (see Table 5).
Three weeks before the initiation of the chronic stress protocol, mice were separated into two groups. […]
The unpredictable chronic stress protocol involved exposing animals to a daily stressful situation at an unpredictable moment for 4 weeks (between 8 am and 4 pm, and randomly distributed over the 28 days). […] All animals were weighed and the state of their coat was evaluated on a regular basis (every 3-5 days). […]
Contextual fear conditioning was used to test the effect of pomegranate extract on anxiety induction (i.e., learned anxiety) in mice in response to contextual recognition. […] To determine the effect of chronic stress and the various doses of pomegranate extract on the level of anxiety induced by this contextual memory, the level of anxiety-induced behavior in response to this context was measured. […]

On to `O=C1O[C@H]2[C@@H]3OC(=O)c4cc(O)c(O)c(O)c4-c4c(O)c(O)c5oc(=O)c6c(c(O)c(O)c7oc(=O)c4c5c76)-c4c(cc(O)c(O)c4O)C(=O)OC[C@H]3OC(O)[C@@H]2OC(=O)c2cc(O)c(O)c(O)c2-c2c1cc(O)c(O)c2O` (mixture of isomers) [punicalagin, 2,3 hexahydroxydiphenoyl-4,6-gallagylglucose], for which, in assay [1], the “respiratory exchange ratio (RER)” value is on record as “significantly decreased RER” and the “energy expenditure (oxygen consumption, VO2)” value (from here on “energy expenditure”) is given as “increased energy expenditure”.
`O=c1oc2c(O)c(O)cc3c(=O)oc4c(O)c(O)cc1c4c23` [ellagic acid]: in assay [2], the “respiratory exchange ratio (RER)” value is “significantly decreased RER” and the “energy expenditure” value is listed as “increased energy expenditure”.
As for `O=c1oc2cc(O)ccc2c2ccc(O)cc12` [urolithin A, 3,8-Dihydroxydibenzo-α-pyrone], the “respiratory exchange ratio (RER)” value in assay [1] and in assay [2] was “significantly decreased RER” in each case. Further, the “energy expenditure” value in assay [1] and in assay [2] was “increased energy expenditure” throughout. Further, the “extinction of memory of the adverse context (freezing)” value in assay [3] was “significant improvement in adverse memory extinction”.
